This is an account of results in ChEMBL document CHEMBL1130059, “Neurotrophic 3,9-bis[(alkylthio)methyl]-and-bis(alkoxymethyl)-K-252a derivatives” (J Med Chem, 1997).

Experiment [1] concerns the target T1, Choline O-acetyltransferase (Rattus norvegicus) (UniProt P32738).
T1 sequence (whole entry): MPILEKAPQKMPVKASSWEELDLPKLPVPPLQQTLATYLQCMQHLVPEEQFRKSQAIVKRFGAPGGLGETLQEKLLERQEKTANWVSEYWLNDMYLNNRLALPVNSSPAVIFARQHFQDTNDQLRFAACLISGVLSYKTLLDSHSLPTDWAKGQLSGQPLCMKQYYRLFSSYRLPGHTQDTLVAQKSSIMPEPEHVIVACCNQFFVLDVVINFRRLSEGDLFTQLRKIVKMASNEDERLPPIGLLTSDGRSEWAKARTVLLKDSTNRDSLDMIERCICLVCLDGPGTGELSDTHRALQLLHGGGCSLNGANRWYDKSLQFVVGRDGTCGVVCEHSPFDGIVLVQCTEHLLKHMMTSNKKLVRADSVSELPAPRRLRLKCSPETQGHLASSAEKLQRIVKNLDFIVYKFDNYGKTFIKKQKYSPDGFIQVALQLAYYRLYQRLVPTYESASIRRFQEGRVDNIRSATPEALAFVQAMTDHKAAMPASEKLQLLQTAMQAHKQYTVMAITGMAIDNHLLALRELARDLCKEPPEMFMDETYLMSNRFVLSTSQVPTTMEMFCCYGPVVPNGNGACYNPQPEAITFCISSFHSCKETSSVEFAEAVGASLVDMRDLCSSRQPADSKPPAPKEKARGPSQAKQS
The experiment is described as follows: Neurotrophic activity as measured by the ability to enhance basal forebrain choline acetyl transferase at 50 nM. The format is functional.

For experiment [2], the target named is High affinity nerve growth factor receptor (Homo sapiens, UniProt P04629). Briefly: Ability to inhibit human trk A tyrosine kinase expressed in baculovirus using ELISA based enzyme assay was determined. (In general: An ELISA detects its analyte on a solid surface through an enzyme-linked reagent.)
For experiment [3], the target named is T1, Choline O-acetyltransferase (Rattus norvegicus). Briefly: Neurotrophic activity as measured by the ability to enhance embryonic rat spinal cord choline acetyl transferase at 300 nM. The class given is functional.
For experiment [4] the target is unchanged. Briefly: Neurotrophic activity as measured by the ability to enhance basal forebrain choline acetyl transferase at 250 nM. The class given is functional.
Experiment [5] shares this target. The experiment is described as follows: Neurotrophic activity as measured by the ability to enhance embryonic rat spinal cord choline acetyl transferase at 30 nM. The format is functional.
In experiment [6] the target is cAMP-dependent protein kinase alpha-catalytic subunit (Oryctolagus cuniculus, UniProt Q95J97). The experiment is described as follows: Inhibition of cAMP dependent Protein kinase A of rabbit Skeletal Muscle.
The target in the next experiment is Protein kinase C (PKC). Briefly: Inhibition of Protein kinase C of Rat brain.
Experiment [7] has as its target Myosin light chain kinase, smooth muscle (Gallus gallus, UniProt P11799). Briefly: Inhibition of Smooth muscle myosin light chain kinase of chicken gizzard.

Sequence of High affinity nerve growth factor receptor (P04629 whole entry): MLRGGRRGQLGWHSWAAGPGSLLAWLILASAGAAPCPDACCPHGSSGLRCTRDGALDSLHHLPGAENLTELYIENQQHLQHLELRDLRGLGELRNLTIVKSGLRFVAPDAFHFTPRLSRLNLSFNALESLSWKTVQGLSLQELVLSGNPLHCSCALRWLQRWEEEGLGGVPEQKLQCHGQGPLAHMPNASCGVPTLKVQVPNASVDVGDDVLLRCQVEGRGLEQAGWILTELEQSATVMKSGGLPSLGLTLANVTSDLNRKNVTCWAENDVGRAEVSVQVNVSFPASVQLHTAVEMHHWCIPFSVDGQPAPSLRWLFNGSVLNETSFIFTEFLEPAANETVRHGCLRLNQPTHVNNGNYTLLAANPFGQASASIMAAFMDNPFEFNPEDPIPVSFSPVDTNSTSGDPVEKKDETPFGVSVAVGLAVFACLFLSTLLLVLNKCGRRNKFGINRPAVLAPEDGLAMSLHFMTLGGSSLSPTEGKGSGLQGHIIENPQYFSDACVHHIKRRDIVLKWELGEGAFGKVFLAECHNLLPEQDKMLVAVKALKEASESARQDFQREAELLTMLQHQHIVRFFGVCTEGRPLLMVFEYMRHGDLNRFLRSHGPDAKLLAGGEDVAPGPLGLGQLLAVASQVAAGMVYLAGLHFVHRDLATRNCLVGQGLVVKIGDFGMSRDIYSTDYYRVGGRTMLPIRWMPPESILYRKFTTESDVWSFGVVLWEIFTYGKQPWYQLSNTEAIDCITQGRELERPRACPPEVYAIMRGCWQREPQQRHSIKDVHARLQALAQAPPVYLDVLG
Sequence of Myosin light chain kinase, smooth muscle (P11799 whole entry): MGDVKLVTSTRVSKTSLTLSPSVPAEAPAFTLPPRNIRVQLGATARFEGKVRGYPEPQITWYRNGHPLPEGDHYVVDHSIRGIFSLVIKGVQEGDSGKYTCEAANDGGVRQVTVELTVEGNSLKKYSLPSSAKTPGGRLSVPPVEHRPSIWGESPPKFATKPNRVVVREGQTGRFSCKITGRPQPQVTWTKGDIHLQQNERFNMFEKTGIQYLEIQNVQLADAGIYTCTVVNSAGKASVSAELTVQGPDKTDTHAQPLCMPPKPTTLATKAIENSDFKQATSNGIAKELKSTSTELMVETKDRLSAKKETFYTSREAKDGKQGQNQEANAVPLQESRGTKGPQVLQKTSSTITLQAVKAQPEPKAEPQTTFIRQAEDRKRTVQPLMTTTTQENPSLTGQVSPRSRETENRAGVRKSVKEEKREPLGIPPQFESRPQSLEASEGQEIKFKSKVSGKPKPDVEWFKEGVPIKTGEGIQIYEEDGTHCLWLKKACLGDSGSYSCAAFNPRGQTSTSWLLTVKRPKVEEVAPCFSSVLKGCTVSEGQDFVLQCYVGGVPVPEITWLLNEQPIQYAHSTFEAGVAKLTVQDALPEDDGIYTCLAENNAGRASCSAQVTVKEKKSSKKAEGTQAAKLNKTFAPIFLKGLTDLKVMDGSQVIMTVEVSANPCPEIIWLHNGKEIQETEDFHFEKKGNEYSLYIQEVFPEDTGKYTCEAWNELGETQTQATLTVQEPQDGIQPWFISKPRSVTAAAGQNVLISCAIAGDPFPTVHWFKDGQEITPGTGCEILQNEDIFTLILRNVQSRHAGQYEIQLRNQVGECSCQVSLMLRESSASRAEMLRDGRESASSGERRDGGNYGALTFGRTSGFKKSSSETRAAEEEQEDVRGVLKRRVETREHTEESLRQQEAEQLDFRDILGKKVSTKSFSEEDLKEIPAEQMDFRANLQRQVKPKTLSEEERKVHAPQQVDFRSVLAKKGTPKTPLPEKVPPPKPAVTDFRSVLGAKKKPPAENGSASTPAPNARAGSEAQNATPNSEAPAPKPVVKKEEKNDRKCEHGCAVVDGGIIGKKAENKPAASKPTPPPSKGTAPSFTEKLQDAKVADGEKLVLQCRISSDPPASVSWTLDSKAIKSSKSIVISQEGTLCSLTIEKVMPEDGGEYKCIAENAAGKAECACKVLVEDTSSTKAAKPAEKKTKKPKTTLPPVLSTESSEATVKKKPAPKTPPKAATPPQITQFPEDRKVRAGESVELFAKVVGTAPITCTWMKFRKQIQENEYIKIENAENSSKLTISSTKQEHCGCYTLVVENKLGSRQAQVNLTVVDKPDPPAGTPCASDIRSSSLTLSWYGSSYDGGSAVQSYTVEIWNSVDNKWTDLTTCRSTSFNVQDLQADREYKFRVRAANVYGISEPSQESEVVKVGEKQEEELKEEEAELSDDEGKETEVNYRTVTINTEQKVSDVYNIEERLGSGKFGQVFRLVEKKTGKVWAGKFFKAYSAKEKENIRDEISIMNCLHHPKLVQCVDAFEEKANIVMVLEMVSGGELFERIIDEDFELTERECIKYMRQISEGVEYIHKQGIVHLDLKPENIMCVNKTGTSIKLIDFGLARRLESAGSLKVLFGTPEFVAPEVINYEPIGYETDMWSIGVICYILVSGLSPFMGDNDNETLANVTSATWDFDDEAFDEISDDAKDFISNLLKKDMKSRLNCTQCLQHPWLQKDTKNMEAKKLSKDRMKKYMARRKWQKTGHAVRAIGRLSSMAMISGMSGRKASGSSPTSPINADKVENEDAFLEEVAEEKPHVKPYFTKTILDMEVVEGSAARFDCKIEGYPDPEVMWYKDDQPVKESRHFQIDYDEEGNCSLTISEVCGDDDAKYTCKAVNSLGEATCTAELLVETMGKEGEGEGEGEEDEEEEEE

One may read the IC50 as the concentration at which inhibition is half-maximal. A low value points to higher potency. As to `CCOCc1ccc2c(c1)c1c3c(c4c5cc(COCC)ccc5n5c4c1n2C1C[C@](O)(C(=O)OC)[C@]5(C)O1)CNC3=O`, the Control was less than 120% in experiment [1], 188% in experiment [3], 237% in experiment [4] and 153% in experiment [5]. For the same molecule, inhibition in experiment [2] was half-maximal at 0.21 µM (IC50).

Take `COC(=O)[C@@]1(O)CC2O[C@]1(C)n1c3ccc(CO)cc3c3c4c(c5c6cc(CO)ccc6n2c5c31)C(=O)NC4`: the Control in experiment [3] and in experiment [5] was less than 120% each time.

With `CCSCc1ccc2c(c1)c1c3c(c4c5cc(CSCC)ccc5n5c4c1n2C1C[C@](O)(C(=O)OC)[C@]5(C)O1)CNC3=O`, the IC50 in experiment [6] was greater than 10 µM; in experiment [2] it was greater than 1 µM; on Protein kinase C (PKC), 16.3 µM; in experiment [7] it was greater than 10 µM. Besides, the Control was 143% in experiment [1], 280% in experiment [3], 363% in experiment [4] and 140% in experiment [5].

On to `CCCCSCc1ccc2c(c1)c1c3c(c4c5cc(CSCCCC)ccc5n5c4c1n2C1C[C@](O)(C(=O)OC)[C@]5(C)O1)CNC3=O`, for which the Control in experiment [1] is 143%; in experiment [3], 289%; in experiment [4], 200%; in experiment [5], less than 120%. The IC50 in experiment [2] is greater than 1 µM.

As for `COCc1ccc2c(c1)c1c3c(c4c5cc(COC)ccc5n5c4c1n2C1C[C@](O)(C(=O)OC)[C@]5(C)O1)CNC3=O`, the Control amounted to 168% in experiment [1], 218% in experiment [3], 340% in experiment [4] and 193% in experiment [5]. Moreover, half-maximal inhibition in experiment [2] (IC50) required 0.27 µM.

For `COC(=O)[C@@]1(O)C[C@H]2O[C@]1(C)n1c3ccccc3c3c4c(c5c6ccccc6n2c5c31)C(=O)NC4` [K-252A], the values for the IC50 in experiment [6] and in experiment [7] were 0.016 µM and 0.02 µM, respectively. Besides, the Control was 148% in experiment [1], 186% in experiment [3], 325% in experiment [4] and less than 120% in experiment [5].

For the molecule `COC(=O)[C@@]1(O)CC2O[C@]1(C)n1c3ccc(CSCCN(C)C)cc3c3c4c(c5c6cc(CSCCN(C)C)ccc6n2c5c31)C(=O)NC4`, the Control in experiment [1] was less than 120%; in experiment [3], 208%; in experiment [4], 158%; in experiment [5] it was less than 120%.

Regarding `CCCSCc1ccc2c(c1)c1c3c(c4c5cc(CSCCC)ccc5n5c4c1n2C1C[C@](O)(C(=O)OC)[C@]5(C)O1)CNC3=O`, the Control in experiment [1] is less than 120%; in experiment [3], 315%; in experiment [4], 180%; in experiment [5], less than 120%. In addition, the IC50 in experiment [2] is greater than 1 µM.

Consider `C=CCSCc1ccc2c(c1)c1c3c(c4c5cc(CSCC=C)ccc5n5c4c1n2C1C[C@](O)(C(=O)OC)[C@]5(C)O1)CNC3=O`, for which the Control in experiment [1] was less than 120%; in experiment [3] it was 302%; in experiment [4], 191%; in experiment [5], less than 120%. This molecule also registered an IC50 in experiment [2] greater than 1 µM.

`COC(=O)[C@@]1(O)CC2O[C@]1(C)n1c3ccc(CSC(C)C)cc3c3c4c(c5c6cc(CSC(C)C)ccc6n2c5c31)C(=O)NC4`: the Control in experiment [1] was 224%; in experiment [3], 289%; in experiment [5] it was less than 120%. Further, the IC50 in experiment [2] is greater than 1 µM.
